Strand notation (5' to 3'): a small letter for the sugar, then the base; units joined by * are phosphorothioate-linked, units joined directly phosphodiester-linked; [ ] holds rarer units or linkages, { } end groups; capitals alone tell only the bases. e = 2'-O-(2-methoxyethyl) (MOE); k = constrained ethyl (cEt); [5mC] = 5-methylcytosine; d = 2'-deoxy (DNA); m = 2'-O-methyl
test system: Yap1 mRNA; experiment: Antisense inhibition of human Yap1 in SNU-449 cells by modified oligonucleotides, single dose (Example 5, RTS36584); type: cell-based; conditions: Table 39; SNU-449 cells, 10,000 cells per well, free uptake, 2,000 nM oligonucleotide, approx. 48 hours; RTS36584; normalized to RIBOGREEN; Yap1 mRNA relative to untreated control
In short: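 Free uptake, 2,000 nM, ~48 h, SNU-449 at 10,000 cells/well. Read-out: qRT-PCR (RTS36584), RIBOGREEN-normalised, expressed as % UTC. Asterisk = oligo hits amplicon region.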

| Substance | YAP1 (% UTC) |
| --- | --- |
| 1198409 (kA*dG*dT*dG*d[5mC]*dT*dT*dT*dG*dG*dA*kA*eG*kA*eT*k[5mC]; antisense) [Compound 1198409] | 19 |
| 1198406 (kG*d[5mC]*dT*dT*dT*dG*dG*dA*dA*dG*dA*kT*e[5mC]*kT*eG*kA; antisense) [Compound 1198406] | 17 |
| 1198398 (kG*d[5mC]*dA*dC*dT*dT*dT*dT*dA*d[5mC]*dA*kT*eT*kA*eG*kG) [Compound 1198398] | 18 |
| 1198393 (kT*dT*dA*d[5mC]*dA*dT*dT*dA*dG*dG*dA*kA*e[5mC]*kA*eA*kG; antisense) [Compound 1198393] | 58 |

same assay, conditions: Table 40 (separate experiment); SNU-449 cells, 10,000 cells per well, free uptake, 2,000 nM oligonucleotide, approx. 48 hours; RTS36584; normalized to RIBOGREEN; Yap1 mRNA relative to untreated control

| Substance | YAP1 (% UTC) |
| --- | --- |
| 1198764 (kA*eG*kA*dT*dT*dT*dA*dG*dG*dA*dT*dG*e[5mC]*eA*kT*kG; antisense) [Compound 1198764] | 28 |
| 1198438 (kT*dG*dT*dA*dT*dG*dT*d[5mC]*dA*dG*dA*kA*eG*kA*eG*kT; antisense) [Compound 1198438] | 7 |
| 1198748 (kA*eA*kG*d[5mC]*dA*d[5mC]*dT*dT*dT*dT*dA*d[5mC]*eA*eT*kT*kA; antisense) [Compound 1198748] | 81 |

same assay, conditions: Table 41; SNU-449 cells, 10,000 cells per well, free uptake, 2,000 nM modified oligonucleotide, approximately 48 hours; RTS36584; normalized to RIBOGREEN; Yap1 mRNA relative to untreated control cells

| Substance | YAP1 (% UTC) |
| --- | --- |
| 1198643 (kA*kT*dA*dT*dT*dA*dG*dA*dG*dT*dA*dT*kG*eT*kG*eG; antisense) [Compound 1198643] | 25 |
| 1198629 (kA*kT*dT*dG*dT*d[5mC]*dT*d[5mC]*dA*dT*dG*d[5mC]*k[5mC]*eT*kT*eA; antisense) [Compound 1198629] | 22 |
| 1198631 (kA*kA*dA*dT*dT*dG*dT*d[5mC]*dT*d[5mC]*dA*dT*kG*e[5mC]*k[5mC]*eT; antisense) [Compound 1198631] | 53 |
| 1198733 (kG*eG*kT*dA*dT*dA*dA*d[5mC]*dT*dG*dG*dG*e[5mC]*eA*kA*kA; antisense) [Compound 1198733] | 47 |
| 1198791 (antisense kT*eT*kA*dA*dA*dG*dT*dG*dT*dA*dT*dG*eT*e[5mC]*kA*kG) [Compound 1198791] | 39 |

same assay, conditions: Table 42 (separate experiment); SNU-449 cells, 10,000 cells per well, free uptake, 2,000 nM modified oligonucleotide, approximately 48 hours; RTS36584; normalized to RIBOGREEN; Yap1 mRNA relative to untreated control cells

| Substance | YAP1 (% UTC) |
| --- | --- |
| 1198225 (k[5mC]*kA*d[5mC]*dT*dT*dT*dT*dA*d[5mC]*dA*dT*eT*eA*eG*kG*kA) [Compound 1198225] | 67 |
| 1198682 (antisense k[5mC]*kT*d[5mC]*dT*dT*dA*dT*dA*dT*dG*dG*dT*kT*eT*kT*eG) [Compound 1198682] | 25 |
| 1198214 (kT*kA*dT*dA*dT*dT*dA*dG*dA*dG*dT*eA*eT*eG*kT*kG; antisense) [Compound 1198214] | 91 |
| 1198646 (kT*kA*dT*dA*dA*d[5mC]*dT*dG*dG*dG*d[5mC]*dA*kA*eA*kT*eT) [Compound 1198646] | 80 |
| 1198696 (antisense kT*kG*dT*dA*dT*dG*dT*d[5mC]*dA*dG*dA*dA*kG*eA*kG*eT) [Compound 1198696] | 12 |
| 1198229 (kT*kT*dA*dA*dG*d[5mC]*dA*d[5mC]*dT*dT*dT*eT*eA*e[5mC]*kA*kT) [Compound 1198229] | 80 |

same assay, conditions: Table 43 experiment; SNU-449 cells, 10,000 cells per well, free uptake, 2,000 nM, approximately 48 hours; RTS36584; Yap1 mRNA normalized to RIBOGREEN, relative to untreated control cells

| Substance | YAP1 (% UTC) |
| --- | --- |
| 1198259 (kA*kA*dT*dA*dT*dT*dG*d[5mC]*dA*dA*dT*e[5mC]*eT*eG*kT*k[5mC]; antisense) [Compound 1198259] | 51 |

same assay, conditions: Table 44 experiment; SNU-449 cells, 10,000 cells per well, free uptake, 2,000 nM, approximately 48 hours; RTS36584; Yap1 mRNA normalized to RIBOGREEN, relative to untreated control cells

| Substance | YAP1 (% UTC) |
| --- | --- |
| 1198530 (kT*kT*dT*dA*dA*dA*dG*dT*dG*dT*dA*eT*kG*eT*k[5mC]*eA; antisense) [Compound 1198530] | 29 |
| 1198504 (kT*k[5mC]*dA*dG*dA*dT*dT*dT*dA*dG*dG*eA*kT*eG*k[5mC]*eA; antisense) [Compound 1198504] | 15 |
| 1198517 (kA*kA*dT*dA*dT*dT*dG*d[5mC]*dA*dA*dT*e[5mC]*kT*eG*kT*e[5mC]; antisense) [Compound 1198517] | 36 |
| 1198490 (antisense kT*kT*dT*dG*dG*dA*dA*dG*dA*dT*d[5mC]*eT*kG*eA*kA*eA) [Compound 1198490] | 53 |

same assay, conditions: Table 45; Yap1 mRNA as percent of untreated control, SNU-449 cells, single dose

| Substance | YAP1 (% UTC) |
| --- | --- |
| 1198929 (kA*kG*dT*dG*d[5mC]*dT*dT*dT*dG*dG*dA*kA*dG*kA*dT*k[5mC]) [Compound 1198929] | 43 |

same assay, conditions: Table 46; Yap1 mRNA as percent of untreated control, SNU-449 cells, single dose

| Substance | YAP1 (% UT) |
| --- | --- |
| 1198864 (kA*kT*dA*dT*dT*dG*d[5mC]*dA*dA*dT*d[5mC]*kT*eG*kT*e[5mC]*kT; antisense) [Compound 1198864] | 56 |
| 1198823 (kG*kG*dT*dA*dT*dA*dA*d[5mC]*dT*dG*dG*kG*e[5mC]*kA*eA*kA; antisense) [Compound 1198823] | 65 |
| 1198850 (kA*kG*dA*dT*dT*dT*dA*dG*dG*dA*dT*kG*e[5mC]*kA*eT*kG; antisense) [Compound 1198850] | 33 |

same assay, conditions: Table 48; Yap1 mRNA level relative to untreated control; modified oligonucleotides targeting SEQ ID NO.: 1 and 2

| Substance | YAP1 (% UT) |
| --- | --- |
| 1198299 (ATATTAGAGTATGTGG; chemistry not fully specified) [Compound 1198299] | 27 |
| 1198286 (kA*kA*kT*dT*dG*dT*d[5mC]*dT*d[5mC]*dA*dT*dG*k[5mC]*e[5mC]*kT*eT; antisense) [Compound 1198286] | 17 |

same assay, conditions: Table 49; Yap1 mRNA level relative to untreated control; modified oligonucleotides targeting SEQ ID NO.: 1 and 2

| Substance | YAP1 (% UT) |
| --- | --- |
| 1198583 (antisense kA*kG*kG*dA*dT*dG*d[5mC]*dA*dT*dG*dG*dT*kT*kT*kT*eT) [Compound 1198583] | 27 |
| 1198341 (k[5mC]*kA*kA*d[5mC]*dT*d[5mC]*dT*dT*dA*dT*dA*dT*kG*eG*kT*eT; antisense) [Compound 1198341] | 90 |
| 1198577 (antisense k[5mC]*kT*kT*dT*dG*dG*dA*dA*dG*dA*dT*d[5mC]*kT*kG*kA*eA) [Compound 1198577] | 40 |

same assay, conditions: Table 50; Yap1 mRNA remaining as percent of untreated control (UT), SNU-449 cells, single dose

| Substance | YAP1 (% UT) |
| --- | --- |
| 1198586 (antisense kA*kT*kT*dT*dA*dG*dG*dA*dT*dG*d[5mC]*dA*kT*kG*kG*eT) [Compound 1198586] | 96 |
| 1198613 (antisense kA*kA*kA*dG*dT*dG*dT*dA*dT*dG*dT*d[5mC]*kA*kG*kA*eA) [Compound 1198613] | 3 |
| 1198594 (antisense k[5mC]*kT*kT*dA*dT*dA*dT*dG*dG*dT*dT*dT*kT*kG*kT*eG) [Compound 1198594] | 23 |
| 1197230 (antisense kT*kG*kG*dA*mA*dA*dT*dT*dG*dT*d[5mC]*dT*d[5mC]*kA*kT*kG) [Compound 1197230] | 29 |

same assay, conditions: Table 51; Yap1 mRNA remaining as percent of untreated control (UT), SNU-449 cells, single dose

| Substance | YAP1 (% UT) |
| --- | --- |
| 1197265 (kT*kA*kA*dT*mA*dT*dT*dG*d[5mC]*dA*dA*dT*d[5mC]*kT*kG*kT) [Compound 1197265] | 103 |
| 1197314 (kA*kA*kA*dG*mU*dG*dT*dA*dT*dG*dT*d[5mC]*dA*kG*kA*kA; antisense) [Compound 1197314] | 22 |
| 1200785 (kA*kT*kT*dG*dT*mC*dT*d[5mC]*dA*dT*dG*d[5mC]*d[5mC]*kT*kT*kA; antisense) [Compound 1200785] | 15 |

same assay, conditions: Table 52; Yap1 mRNA, modified oligonucleotides targeting SEQ ID NO: 1 and 2

| Substance | YAP1 (% UT) |
| --- | --- |
| 1200867 (kA*kA*kG*dT*dA*mA*dG*dG*dT*dT*dT*d[5mC]*d[5mC]*k[5mC]*kA*kG; antisense) [Compound 1200867] | 38 |
| 1200825 (kT*kG*k[5mC]*dT*dT*mU*dG*dG*dA*dA*dG*dA*dT*k[5mC]*kT*kG; antisense) [Compound 1200825] | 39 |

same assay, conditions: Yap1 mRNA, percent of untreated control; modified oligonucleotides targeting SEQ ID NO: 1 and 2; Table 47

| Substance | YAP1 (% UT) |
| --- | --- |
| 1197226 (antisense kA*kG*kA*d[5mC]*dT*dA*dA*dG*dT*dA*dA*dG*dG*kT*kT*kT) [Compound 1197226] | 67 |

— patent publication US11214803B2, “Modulators of YAP1 expression” (Ionis Pharmaceuticals, Inc., priority 2019, dated 2022)
